Results on 80 molecules are retold here after the METLIN SMRT retention time set (Domingo-Almenara et al. 2019).

The nature of this series: gradient 5% acetonitrile 3 min, to 50% in 2 min, to 85% in 15 min, held 3 min, 100 µL/min. To be noted: column: Zorbax Extend-C18 2.1 x 50 mm; eluents: water / acetonitrile, 0.1% formic acid. An outline of the steps: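 A Zorbax Extend-C18 column (2.1 × 50 mm, 1.8 μm) run at 100 μL/min with water and acetonitrile, both containing 0.1% formic acid, separated mixtures of ~100 pure standards. The HPLC was coupled to a quadrupole time-of-flight mass spectrometer operated in positive and negative ionization mode, with dead and dwell volumes of 40 μL and 900 μL. Each retention time was taken from a computationally picked adduct peak that was then manually inspected.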
`O=C(Cn1ccc2ccc(N3CCOCC3)nc21)N1CCC(Cc2ccccc2)CC1` came in with an RP-LC retention time of 1050 s.

For `Cn1nccc1C(=O)N1CCCC1c1nc(-c2ccc(F)cc2F)no1` (stereo not given), the RP-LC retention time worked out at 794 s.

`CC(C)(C)n1nnnc1C1CC2(CCOCC2)C(=O)N1CCc1nc2ccccc2[nH]1` (stereo not given) had an RP-LC retention time of 604 s.

`O=C(Nc1nnc(-c2ccc(C(F)(F)F)cc2)o1)c1cc2ccccc2o1`: the RP-LC retention time stood at 885 s.

`CCCCNC(=O)C1CCCN1C(=O)c1ccc(NC(=O)C(C)(C)C)cc1` (stereo not given): the RP-LC retention time was 693 s.

On to `OC[C@@H]1CN(C2CCCC2)C[C@H]1c1nc(-c2cccnc2)no1`, for which the RP-LC retention time is 553 s.

`CCOC(=O)c1nnc2c(-c3ccccc3OC)c(C)nn2c1C` yielded an RP-LC retention time of 924 s.

`Cn1c(=O)oc2cc(-c3noc(-c4ccc(C#N)cc4)n3)ccc21` displayed an RP-LC retention time of 988 s.

The molecule `CC(C)c1noc(-c2cc(=O)n(CC(=O)Nc3ccc(Cl)cc3F)c3ccccc23)n1` yielded an RP-LC retention time of 1100 s.

With `O=C(c1ccsc1)N1CC(c2noc(C3CCCN3CC3CC3)n2)C1` (stereo not given), the RP-LC retention time worked out at 590 s.

`Cc1oc2ccn(Cc3ccc(F)cc3)c(=O)c2c1C(=O)NCc1cccs1` had an RP-LC retention time of 1030 s.

Turning to `O=C1NC2(CCN(C(=O)Nc3ccccc3)CC2)Oc2ccccc21`, the RP-LC retention time is 721 s.

`COc1ccc(-n2nnc(-c3nc(-c4ccccc4OC)cs3)c2N)cc1` displayed an RP-LC retention time of 1090 s.

Take `CCN(CCCc1ccccc1)CCCc1ccccc1`: the RP-LC retention time is 874 s.

Take `COC(=O)c1ccc(NC(=O)N2CCCC2c2ccc(F)cc2)cc1` (stereo not given): the RP-LC retention time was 919 s.

Regarding `CCN(CC)c1ccc(CNC(=O)C2CCc3nc(N4CCCCC4)ncc3C2)cc1` (stereo not given), the RP-LC retention time was 546 s.

`CSc1ccc(CNC(=O)c2cc(-c3ccncc3)cn2C)cc1`: the RP-LC retention time turned out to be 655 s.

Molecule `COc1ccc(NC(=O)c2ccc(-c3ccsc3)nc2)cc1` came in with an RP-LC retention time of 862 s.

As to `O=C([C@@H]1C[C@H](F)CN1C(=O)Cc1ccccc1F)N1CCCCC1`, the RP-LC retention time is 684 s.

With `COc1ccc(C(=O)Nc2c(-c3ccccc3)nc3cc(C)ccn23)c(OC)c1`, the RP-LC retention time came out at 680 s.

Regarding `CCOC(=O)Cc1csc(NC(=O)Cc2csc(Nc3cc(C)ccn3)n2)n1`, the RP-LC retention time was found to be 624 s.

Consider `CCCC(=O)Nc1nc(-c2ccc3c(c2)NC(=O)CO3)c(C)s1`, for which the RP-LC retention time amounted to 752 s.

`CCCn1c2ccccc2c2cnn(CC(=O)NCCN3CCCCC3C)c(=O)c21` (stereo not given) showed an RP-LC retention time of 680 s.

As for `CCCN1C(=O)Cc2ccccc2C1C(=O)NCc1ccc2c(c1)OCO2` (stereo not given), the RP-LC retention time was 765 s.

In turn, `CNC(=O)c1nsc(C(=O)OC)c1N` showed an RP-LC retention time of 677 s.

The molecule `O=C(NCC(=O)N1CC[C@H](NC2CCC(O)(c3ccc(-c4ncccn4)cn3)CC2)C1)c1cccc(C(F)(F)F)c1` (stereo not given in full) returned an RP-LC retention time of 674 s.

Turning to `COc1ccc(CNC(=O)Cc2nnc(-c3ccccn3)o2)cc1OC`, the RP-LC retention time is 622 s.

`CCOc1cccc(-c2noc(Cn3ccn4nc(-c5ccc(C)c(C)c5)cc4c3=O)n2)c1` displayed an RP-LC retention time of 1220 s.

`COc1ccc(NC(=O)c2nc(N3CCCC3)c3c(C)cc(C)nc3n2)c(C)c1` gave an RP-LC retention time of 666 s.

The molecule `O=C(C1CCN(c2ncnc3c2oc2ccccc23)CC1)N1CCN(c2ccccc2Cl)CC1` came in with an RP-LC retention time of 930 s.

`O=C(Nc1cc(F)cc(F)c1)c1c(O)c2cccnc2n(-c2ccccc2)c1=O` had an RP-LC retention time of 709 s.

The molecule `Cc1noc(-c2cccn2Cc2cccc(Cl)c2)n1` gave an RP-LC retention time of 1110 s.

Consider `CC1=NS(=O)(=O)N(Cc2ccccc2)C=C1C(=O)OCc1ccc(Cl)cc1`, for which the RP-LC retention time is 1160 s.

With `CCOC(=O)c1c(S(=O)(=O)N2CCC(C(=O)NCc3ccccc3Cl)CC2)c(C)n(C)c1C`, the RP-LC retention time was found to be 862 s.

`COc1ccccc1NC(=O)C1CCCN(c2ncnc3c2nc2n3CCCCC2)C1` (stereo not given) came in with an RP-LC retention time of 805 s.

With `CCCN(CC1CCOC1)C(=O)Nc1ccc(Cl)cc1F` (stereo not given), the RP-LC retention time was 853 s.

`CCCCNC(=O)C1CCN(C(=O)Nc2ccc(NC(=O)NC3CCCC3)cc2)CC1` showed an RP-LC retention time of 684 s.

`Cc1nn(-c2ccc(Cl)cc2)c(C)c1S(=O)(=O)N1CCC(C(=O)NC2CC2)CC1` came in with an RP-LC retention time of 835 s.

Turning to `Cc1nocc1C(=O)N1CCCn2ccnc2C1C1CCCC1` (stereo not given), the RP-LC retention time was determined as 589 s.

`CCc1ccc(NC(=O)N2CCc3nc[nH]c3C2)cc1` had an RP-LC retention time of 612 s.

`Cc1ccc(Cn2nnc(C(=O)NCc3ccco3)c2-n2cccc2)cc1` registered an RP-LC retention time of 1010 s.

As to `CCc1ccc(NC(=O)C2CCCN(c3ccc(=O)n(-c4ccc(C)c(Cl)c4)n3)C2)cc1` (stereo not given), the RP-LC retention time came to 586 s.

In turn, `Cc1c(C(=O)NCCCN2CCOCC2)oc2ccc3c(c12)C(O)CC1(CCCCC1)O3` (stereo not given) returned an RP-LC retention time of 688 s.

`C=CCN1C(=O)C(C)(C)COc2cc(NS(=O)(=O)c3ccc(Cl)s3)ccc21` yielded an RP-LC retention time of 975 s.

`CC(C)n1c(N2CCN(C(=O)c3ccc(Br)o3)CC2)cc(=O)n(C(C)C)c1=O` came in with an RP-LC retention time of 870 s.

`CN(CCCNC(=O)C1CCCN(c2ncc(-c3ccccc3)cn2)C1)c1ccccc1` (stereo not given) showed an RP-LC retention time of 826 s.

Molecule `COC(=O)Nc1nc(CC(=O)NCc2cn3ccccc3n2)cs1` returned an RP-LC retention time of 617 s.

Molecule `CCCNC(=O)C1CCN(c2ccc(SCC(=O)Nc3cc(C)ccc3C)nn2)CC1` came in with an RP-LC retention time of 656 s.

With `O=C(NC1CC1)c1ccccc1OCC1CCN(C(=O)c2cc(F)cc(F)c2)CC1`, the RP-LC retention time amounted to 848 s.

The molecule `Cc1noc(C)c1S(=O)(=O)N1CCC(Cc2nc(-c3cccnc3)n[nH]2)C1` (stereo not given) came in with an RP-LC retention time of 624 s.

Regarding `O=C(Nc1cccc(-c2cn3cccnc3n2)c1)c1ccccc1F`, the RP-LC retention time was determined as 664 s.

`Cc1cccc(-c2nocc2CCC(=O)NCc2ccccc2)c1`: the RP-LC retention time came out at 907 s.

In the case of `CCC(C)NS(=O)(=O)c1cc(-c2c(C)noc2NC(C)=O)ccc1OC` (stereo not given), the RP-LC retention time is 720 s.

`Cc1nnc(-c2cc(C)n(CC(=O)Nc3ccc(Br)cc3C)c2C)o1` yielded an RP-LC retention time of 847 s.

For `CC(C)Cn1c(=O)c(-c2ccc(C(=O)NCc3cccnc3)cc2)nc2ccccc21`, the RP-LC retention time was 693 s.

Turning to `CCNC(=O)C1CCN(C(=O)Nc2ccc(NC(=O)NCCC(C)C)cc2)CC1`, the RP-LC retention time stood at 662 s.

On to `Cc1cccc(C(=O)N2CCCC2c2cc(C(C)C)on2)c1` (stereo not given), for which the RP-LC retention time amounted to 948 s.

In the case of `O=C(Nc1ccc(F)cc1F)C1CCCN(c2ncnc3c2nc2n3CCCCC2)C1` (stereo not given), the RP-LC retention time is 824 s.

The molecule `O=C(C1CCCO1)N1CCC(OCc2nc(-c3ccccc3)no2)CC1` (stereo not given) gave an RP-LC retention time of 778 s.

Turning to `O=C(CN1C(=O)CCCc2cc(S(=O)(=O)N3CCCCC3)ccc21)NCc1ccccc1Cl`, the RP-LC retention time is 909 s.

`Cc1ccccc1CNC(=O)C1(C)CCN(S(=O)(=O)c2ccc(C3CCCCC3)cc2)CC1` displayed an RP-LC retention time of 1310 s.

The molecule `CCOC(=O)N1CCN(C(=O)CSc2nnc(COc3ccc(Cl)cc3)o2)CC1` came in with an RP-LC retention time of 799 s.

`Cc1sc(-c2cc(C(F)(F)F)on2)cc1S(=O)(=O)NCc1ccccc1` yielded an RP-LC retention time of 1110 s.

For the molecule `Cc1ccccc1CNS(=O)(=O)c1ccc(-c2c(C)noc2C)cc1`, the RP-LC retention time was 959 s.

`COc1ccc(-n2c(=O)c(C(=O)NCc3ccc(F)cc3F)c(O)c3cccnc32)cc1`: the RP-LC retention time is 1170 s.

In turn, `Cc1ccn2cc(-c3ccc(NC(=O)C(C)(C)C)cc3)nc2n1` came in with an RP-LC retention time of 616 s.

In the case of `COc1ccc(OC)c(-c2ccc(SCC(=O)Nc3cc(C)no3)nn2)c1`, the RP-LC retention time was found to be 754 s.

As to `Cn1nc(-c2nc(-c3ccccc3F)no2)c2c1CCN(C(=O)NC(C)(C)C)C2`, the RP-LC retention time was 594 s.

With `O=C(NCCc1noc(C2CC2)n1)C1CCC1`, the RP-LC retention time is 651 s.

`Cc1cc(C)cc(NC(=O)C2CCN(S(=O)(=O)c3cn(C)cn3)CC2)c1`: the RP-LC retention time is 732 s.

Consider `NC(=O)c1cc(=O)[nH]c2ccccc12`, for which the RP-LC retention time was found to be 546 s.

As to `CC(C)CNC(=O)C1CCN(C(=O)c2ncn3c2COC(c2ccccc2)C3)CC1` (stereo not given), the RP-LC retention time amounted to 702 s.

`CCOc1ccc(C(=O)N2CCC[C@@H]2C(=O)NCCc2csc(C)n2)cc1` came in with an RP-LC retention time of 846 s.

Molecule `CCC1CN2C=Nc3oc(C)c(C(=O)Nc4cccc(Cl)c4C)c3C2=N1` (stereo not given) yielded an RP-LC retention time of 687 s.

`CCn1cc(CCNC(=O)C(C)C)c2cccnc21`: the RP-LC retention time was found to be 612 s.

For the molecule `O=C(OCc1ccncc1)c1cn(-c2cccc(Cl)c2)c(=O)c2ccccc12`, the RP-LC retention time was 770 s.

`Clc1ccc(-c2nc(NC3CCCC3)c3ccccc3n2)cc1`: the RP-LC retention time was 887 s.

`CCN1C(=O)COc2ccc(-c3csc(NC(=O)c4cccc(OC)c4)n3)cc21` yielded an RP-LC retention time of 967 s.

For `CCOc1ccccc1NC(=O)Nc1ccc2nc(N3CCN(C)CC3)cc(C)c2c1`, the RP-LC retention time was 612 s.

Molecule `C[C@H](NC(=O)C1CCN(S(=O)(=O)c2ccccc2)CC1)C(=O)O` returned an RP-LC retention time of 643 s.
